Common to all, as to format: in vivo
The test system of data set [1] is rat. Description: Carrageenan-induced hind paw oedema (plethysmometer). The settings on record: 15 mg/kg, given 1 h before carrageenan; for % d'inhibitions de l'oedème/témoin à 3 h: 3 h after carrageenan; for % d'inhibitions de l'oedème/témoin à 4 h: 4 h after carrageenan; for % d'inhibitions de l'oedème/témoin à 5 h: 5 h after carrageenan. The text has this: L'activité anti-inflammatoire de composés selon l'invention a été mise en évidence par l'étude de la réduction d'une réaction inflammatoire induite par injection de carragénine sous l'aponévrose plantaire de la patte postérieure du rat (carragénine Sigma type IV, solution de 1 % dans du soluté isotonique de NaCI).
Le test utilise un appareil de mesure de volume du type "pléthysmométre" constitué d'une structure en U remplie d'eau, une branche du U étant constituée d'un cylindre destiné à recevoir la patte de l'animal (la patte de l'animal est plongée jusqu'à coïncidence de l'articulation tibio-tarsienne avec un repère de base), l'autre branche étant constituée d'une pipette graduée permettant la mesure de volume en mode différentiel.
Selon le protocole expérimental, au temps "t0" on mesure le volume de la patte de l'animal puis on administre le produit de traitement à étudier (les animaux témoins recevant le véhicule d'administration dans les mêmes conditions). Au temps TO + 1 heure, on injecte sous l'aponévrose plantaire de chaque animal 0,05 ml de la solution de carragénine. Le volume de la patte de l'animal est mesuré 3, 4 et 5 heures après injection de la carragénine.
L'activité anti-inflammatoire est calculée en pourcentage de réduction de l'oedème chez les rats traités par rapport aux rats témoins.
Background: Carrageenan injected into the paw causes an acute inflammation.

The subject of data set [2] is souris. Nature of the data set: Abdominal cramps test (writhing test), acetic acid i.p. The following applies: for résultats des tests complémentaires (crampes abdominales): other racemic diastereomer compared with the one shown in Tableau 4; for Degré de protection par rapport aux témoins: hydrochloride, 30 min before acetic acid; for Degré de protection par rapport aux témoins à 30´ / Degré de protection par rapport aux témoins à 1 h / Degré de protection par rapport aux témoins à 2 h / Degré de protection par rapport aux témoins à 4 h / Degré de protection par rapport aux témoins à 6 h: 4 mg/kg; for Degré de protection par rapport aux témoins à 30´: reading at 30 min; for Degré de protection par rapport aux témoins à 1 h: reading at 1 h; for Degré de protection par rapport aux témoins à 2 h: reading at 2 h; for Degré de protection par rapport aux témoins à 4 h: reading at 4 h; for Degré de protection par rapport aux témoins à 6 h: reading at 6 h. How it is done: Ce test, également connu sous le nom de WRITHING TEST, utilisé pour la sélection d'analgésiques/antalgiques à effet périphérique, consiste à rechercher une éventuelle protection vis-à-vis des crampes et/ou contorsions abdominales provoquées, chez la souris, par l'injection intrapéritonéale d'acide acétique.
Les composés ont été administrés sous forme de chlorhydrate par voie intrapéritonéale 30 minutes avant l'acide acétique.
Du point de vue cinétique de l'activité antalgique, des tests de crampes abdominales ont été poursuivis dans le temps avec des relevés à 30 minutes, 1 heure, 2 heures, 4 heures et 6 heures.
In general terms: Writhing tests count abdominal constrictions after an irritant is injected.

Data set [3] concerns souris. Description: Behavioural despair test (forced swimming, immobility time). The settings on record: 25 mg/kg, given 30 min before 6 min exposure to water. The text has this: L'activité antidépressive de composés selon l'invention a été mise en évidence par l'étude du comportement du désespoir chez la souris.
Selon le principe du test, un état dépressif est induit chez la souris en l'obligeant à nager dans un récipient cylindrique étroit d'où elle ne peut s'échapper. Après une période brève d'intense activité, la souris adopte une position immobile caractéristique, facilement identifiable. Les antidépresseurs réduisent ces moments d'immobilité.
Selon le protocole expérimental, les souris sont pré-exposées à l'eau à 25°C pendant 15 minutes, 24 heures avant le test. Pour le test on administre le composé à étudier 30 minutes avant une exposition à l'eau de 6 minutes. Le temps total d'immobilité de la 2e à la 6e minute est mesuré. Les animaux témoins reçoivent le véhicule d'administration du produit de traitement dans les mêmes conditions que les animaux traités.

Data set [4] deals with souris. Nature of the data set: Acute toxicity: mortality after single intraperitoneal administration of increasing doses. The following applies: mouse. How it is done:
La détermination de la mortalité chez la souris est observée à la suite de l'administration unique par voie intrapéritonéale de doses croissantes de composés à tester.
La dose limite DL100 pour les composés étudiés est supérieure ou égale à 100 mg/kg. Les doses DLO et DL100 des composés 27, 32 et 36 sont rassemblées dans le tableau 2: […]

Data set [5] deals with souris. Description: Abdominal cramps test (writhing test), acetic acid i.p. The settings on record: oral administration; for activité par voie orale: 16 mg/kg.
Data set [6] relates to souris. Description: Hot plate test (56 C), reaction time to thermal pain stimulus. The settings on record: hydrochloride, 1 h after administration. The text has this: Cet essai consiste à mesurer le temps d'apparition d'une réaction au stimulus thermoalgique chez la souris.
L'animal est placé sur une plaque métallique portée à une température constante de 56 C. […] Après administration d'un analgésique, le délai d'apparition du réflexe s'allonge: on obtient une élévation de réaction du seuil.
Les composés ont été administrés par voie intrapéritonéale sous forme de chlorhydrate et testés sur les animaux 1 heure après leur administration. Les résultats sont donnés sur quelques exemples dans le tableau 3 suivant un pourcentage de variation du temps de réaction moyen après traitement par rapport à avant traitement.
In general terms: Hot-plate and tail-flick tests time the reaction to a heat stimulus.

Setting [7] is: DLO, single dose, intraperitoneal.
Where [8] appears, read: DL100, single dose, intraperitoneal.

Marks after values point to notes of the source that are not given here.

Regarding `CC1(c2ccc(F)cc2)CCC(N2CCN(CCOC(=O)Nc3ccccc3)CC2)c2ccccc21` (stereo not drawn) [27.p (cis)], in data set [1], the “% d'inhibitions de l'oedème/témoin à 3 h” value is given as 35* %, the “% d'inhibitions de l'oedème/témoin à 4 h” value is on record as 39** % and the “% d'inhibitions de l'oedème/témoin à 5 h” value is 43** %. In addition, the “résultats des tests complémentaires (crampes abdominales)” value (from here on “résultats des tests complémentaires”) in data set [2] is “résultats comparables”.
With `CC1(c2ccc(F)cc2)CCC(N2CCN(CCOC(=O)Nc3ccccc3)CC2)c2ccccc21` (stereo not drawn) [27.p (trans)], the “activité antidépressive” value in data set [3] is listed as “activité antidépressive certaine”. In data set [1], the “% d'inhibitions de l'oedème/témoin à 3 h” value is recorded as 40** %, the “% d'inhibitions de l'oedème/témoin à 4 h” value was 40*** % and the “% d'inhibitions de l'oedème/témoin à 5 h” value was 39** %. Moreover, the “Degré de protection par rapport aux témoins” value in data set [2] (0,5 mg/kg intraperitoneal) turned out to be 58%. Besides, the “Degré de protection par rapport aux témoins” value in data set [2] (0,25 mg/kg intraperitoneal) is on record as 47%. Besides, the “Degré de protection par rapport aux témoins” value in data set [2] (1 mg/kg intraperitoneal) is 70%. The “Degré de protection par rapport aux témoins” value in data set [2] (2 mg/kg intraperitoneal) is recorded as 68%. Further, the “Degré de protection par rapport aux témoins” value in data set [2] (4 mg/kg intraperitoneal) amounted to 75%. In data set [2], the “Degré de protection par rapport aux témoins à 30´” value was 84***, the “Degré de protection par rapport aux témoins à 1 h” value is 68***, the “Degré de protection par rapport aux témoins à 2 h” value was 53** and the “Degré de protection par rapport aux témoins à 4 h” value is given as 56***. Also, in data set [2], the “Degré de protection par rapport aux témoins à 6 h” value was determined as 21. Also, the “Degré de protection par rapport aux témoins” value in data set [2] (8 mg/kg intraperitoneal) came to 92%.
Regarding `CC1(c2ccc(F)cc2)CCC(N2CCN(CCOC(=O)Nc3ccccc3)CC2)c2ccccc21` (stereo not shown) [27.p], the “Dose limite 0 en” value in data set [4] (setting [7]) is recorded as over 200 mg/kg.
`CC(=O)OCCN1CCN(C2CCC(C)(c3ccc(F)cc3)c3cc(C(C)(C)C)ccc32)CC1` (stereo not shown) [36.a]: in data set [5], the “activité par voie orale” value is “actifs par voie orale”. Moreover, in data set [4] (in vivo, ip), the “Dose limite 0 en” value was 100 mg/kg and the “Dose limite 100 en” value was over 200 mg/kg. Besides, in data set [6] (15mg/kg intraperitoneal), the “Variation du temps de réaction moyen en %” value stood at 35%. In data set [2] (2 mg/kg intraperitoneal), the “Degré de protection par rapport aux témoins” value is 52%. Moreover, the “Degré de protection par rapport aux témoins” value in data set [2] (4 mg/kg intraperitoneal) is listed as 66%. For the same compound, in data set [2], the “Degré de protection par rapport aux témoins à 30´” value is 69***, the “Degré de protection par rapport aux témoins à 1 h” value was 82***, the “Degré de protection par rapport aux témoins à 2 h” value was 60** and the “Degré de protection par rapport aux témoins à 4 h” value was 58***. Also, in data set [2], the “Degré de protection par rapport aux témoins à 6 h” value is reported as 38**. Besides, the “Degré de protection par rapport aux témoins” value in data set [2] (8 mg/kg intraperitoneal) was found to be 94%. The “Degré de protection par rapport aux témoins” value in data set [2] (15 mg/kg intraperitoneal) turned out to be 85%.
Take `CC(C)(C)c1ccc2c(c1)C(C)(c1ccc(F)cc1)CCC2N1CCN(CCOC(=O)Nc2cccc3ccccc23)CC1` (stereo not shown) [36.n]: the “Dose limite 0 en” value in data set [4] (setting [7]) is given as over 200 mg/kg.
As to `CC(C)(C)c1ccc2c(c1)C(C)(c1ccc(F)cc1)CCC2N1CCN(CCOC(=O)Nc2ccccc2)CC1` (stereo not drawn) [36.p (cis)], the “Degré de protection par rapport aux témoins” value in data set [2] (0,5 mg/kg intraperitoneal) is 61%; in data set [2] (1 mg/kg intraperitoneal), 44%; in data set [2] (2 mg/kg intraperitoneal), 61%; in data set [2] (4 mg/kg intraperitoneal), 90%; in data set [2] (8 mg/kg intraperitoneal), 93%. Besides, the “Degré de protection par rapport aux témoins à 30´” value in data set [2] is on record as 89***. The “Degré de protection par rapport aux témoins à 1 h” value in data set [2] is given as 69***. In addition, the “Degré de protection par rapport aux témoins à 2 h” value in data set [2] is 68***. Besides, the “Degré de protection par rapport aux témoins à 4 h” value in data set [2] is recorded as 46**. For the same compound, in data set [2], the “Degré de protection par rapport aux témoins à 6 h” value turned out to be 24.
Take `CC(C)(C)c1ccc2c(c1)C(C)(c1ccc(F)cc1)CCC2N1CCN(CCOC(=O)Nc2ccccc2)CC1` (stereo not drawn) [36.p (trans)]: in data set [6] (25 mg/kg intraperitoneal), the “Variation du temps de réaction moyen en %” value is 63* %. Moreover, in data set [2], the “résultats des tests complémentaires” value was “résultats comparables”.
Turning to `CC(C)(C)c1ccc2c(c1)C(C)(c1ccc(F)cc1)CCC2N1CCN(CCOC(=O)Nc2ccccc2)CC1` (stereo not shown) [36.p], the “activité par voie orale” value in data set [5] is “actifs par voie orale”. Moreover, the “Dose limite 100 en” value in data set [4] (setting [8]) is on record as over 200 mg/kg. Moreover, the “Dose limite 0 en” value in data set [4] (setting [7]) is 100 mg/kg.
Regarding `CC(C)(C)c1ccc2c(c1)C(C)(c1ccccc1)CCC2N1CCOCC1` (stereo not drawn) [39 (cis)], the “Degré de protection par rapport aux témoins” value in data set [2] (0,5 mg/kg intraperitoneal) was determined as 53%; in data set [2] (1 mg/kg intraperitoneal), 58%; in data set [2] (2 mg/kg intraperitoneal), 54%; in data set [2] (4 mg/kg intraperitoneal) it was 63%; in data set [2] (8 mg/kg intraperitoneal), 89%.
`CC(C)(C)c1ccc2c(c1)C(C)(c1ccccc1)CCC2N1CCOCC1` (stereo not drawn) [39 (trans)]: the “Variation du temps de réaction moyen en %” value in data set [6] (25 mg/kg intraperitoneal) is recorded as 58%. Further, in data set [2], the “résultats des tests complémentaires” value is reported as “résultats comparables”.
Regarding `CC1(c2ccc(F)cc2)CCC(N2CCN(CCO)CC2)c2ccccc21` (stereo not shown) [compound 27], the pourcentages de protection in data set [5] (60 mg/kg) was 86%; in data set [2] (oral administration, 32 mg/kg), 37%. Besides, the “Dose limite 100 en” value in data set [4] (setting [8]) stood at 200 mg/kg. Besides, the “Dose limite 0 en” value in data set [4] (setting [7]) was 100 mg/kg. Further, in data set [4] (intraperitoneal, compared with the corresponding 4-amino-1-trifluoromethyl tetralin), the “doses limites DLO et DL100 par rapport à l'amino-4-trifluorométhyl-1 tétraline correspondante” value was “deux fois”. In data set [6] (15mg/kg intraperitoneal), the “Variation du temps de réaction moyen en %” value is listed as 29%. Further, the figures for the “Degré de protection par rapport aux témoins” value in data set [2] (4 mg/kg intraperitoneal), in data set [2] (8 mg/kg intraperitoneal) and in data set [2] (15 mg/kg intraperitoneal) were 49%, 66% and 92%, respectively. Besides, in data set [2] (writhing test, intraperitoneal), the “activité par rapport à l'amino-4-trifluoro-méthyl-1 tétraline correspondante” value is recorded as “activité nettement améliorée”.
For the compound `CC(C)(C)c1ccc2c(c1)C(C)(c1ccccc1)CCC2N1CCN(CCO)CC1` (stereo not shown) [compound 32], in data set [4] (in vivo, ip), the “Dose limite 0 en” value was determined as 25 mg/kg and the “Dose limite 100 en” value worked out at 100 mg/kg. For the same compound, in data set [6] (8mg/kg intraperitoneal), the “Variation du temps de réaction moyen en %” value turned out to be 16%. The “Degré de protection par rapport aux témoins” value in data set [2] (8 mg/kg intraperitoneal) was determined as 41%.

(Values after EP0469683A1, “Derivatives of 4-amino-1-methyltetralins, their preparation and their application in therapy” (LABORATOIRES LUCIEN, Société Anonyme :, priority 1990, dated 1992).)
